Laboratory results taken from patent US10899754B2, “Modulators of indoleamine 2,3-dioxygenase” (GLAXOSMITHKLINE INTELLECTUAL PROPERTY DEVELOPMENT LIMITED, priority 2016, dated 2021).

Tests used:
[1] = biological target: indoleamine 2, 3-dioxygenase (IDO1) (Homo sapiens, UniProt P14902); assay: IDO1 PBMC RapidFire MS assay (kynurenine detection by mass spectrometry); type: cell-based; set-up: to induce the expression of indoleamine 2, 3-dioxygenase (IDO1); host or cells: human PBMC stimulated with IFN-gamma and LPS; details: human PBMC stimulated with IFN-γ and LPS, 2 days, pIC50, read-out: PBMC PXC50 (converted)
Summary of the method: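 Kynurenine output, read by RapidFire mass spectrometry as ratio to an internal standard, was measured after 2-day compound exposure (11-point, 3-fold dilutions) of human PBMCs induced with 100 ng/ml IFN-γ and 50 ng/ml LPS. Cell viability tracked alongside via ATP luminescence; XC50 from curve fitting.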

[2] = test system: human peripheral blood mononuclear cells (PBMC); assay: PBMC cytotoxicity assay (CellTiter-Glo); type: cell-based; details: 2 days, pCC50
Summary of the method: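 % cytotoxicity was taken from CellTiter-Glo luminescence, using wells without cells and stimulated DMSO wells as references, and fitted by four-parameter curve to give XC50. Cells were human PBMC at 50,000 per well, activated with 100 ng/ml IFN-γ plus 50 ng/ml LPS. Incubation with 11-point, 3-fold dilution series ran for 2 days at 37 °C.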

indoleamine 2, 3-dioxygenase (IDO1), sequence (P14902 whole entry): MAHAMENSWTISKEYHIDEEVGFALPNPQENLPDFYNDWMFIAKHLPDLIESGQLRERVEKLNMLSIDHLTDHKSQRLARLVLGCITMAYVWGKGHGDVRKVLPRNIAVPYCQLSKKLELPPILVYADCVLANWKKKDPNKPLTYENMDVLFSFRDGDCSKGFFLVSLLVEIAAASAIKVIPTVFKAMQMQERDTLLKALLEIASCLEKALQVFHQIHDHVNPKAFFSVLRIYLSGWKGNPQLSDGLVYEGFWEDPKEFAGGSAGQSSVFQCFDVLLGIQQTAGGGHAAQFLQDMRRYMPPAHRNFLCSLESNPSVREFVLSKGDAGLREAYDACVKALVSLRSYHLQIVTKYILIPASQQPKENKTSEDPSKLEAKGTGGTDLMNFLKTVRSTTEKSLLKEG

CC(C)CN(CCCCCNC(=O)OC1CC/C=C/CCC1)c1ccc(C(C)CC(=O)O)cc1Nc1nc(C(F)(F)F)ns1 (centres unmarked) [example 259, 3-(4-{[5-({[(4E)-cyclooct-4-en-1-yloxy]carbonyl}amino)pentyl](2-methylpropyl)amino}-3-{[3-(trifluoromethyl)-1,2,4-thiadiazol-5-yl]amino}phenyl)butanoic acid]
IC50 [1]: 100 nM | PBMC TOX PXC50 [2]: <4.3

CC(C)CN(CCCCCN)c1ccc([C@H](C)CC(=O)O)cc1Nc1nc(C(F)(F)F)ns1 [example 229, (3R)-3-{4-[(5-aminopentyl)(2-methylpropyl)amino]-3-{[3-(trifluoromethyl)-1,2,4-thiadiazol-5-yl]amino}phenyl}butanoic acid]
IC50 [1]: 50.1 nM | PBMC TOX PXC50 [2]: <5

CC(C)CN(c1ccc([C@H](C)CC(=O)O)cc1Nc1ccc(C#N)nc1)C1CCOCC1 [Example 13, (R)-3-(3-((6-cyanopyridin-3-yl)amino)-4-(isobutyl(tetrahydro-2H-pyran-4-yl)amino)phenyl)butanoic Acid]
IC50 [1]: 1.26 nM | PBMC TOX PXC50 [2]: <5

CC(=O)N1CCC(N(CC(C)C)c2ccc([C@H](C)CC(=O)O)cc2Nc2nc(C(F)(F)F)ns2)CC1 [Example 70, (R)-3-(4-((1-acetylpiperidin-4-yl) (isobutyl)amino)-3-((3-(trifluoromethyl)-1,2,4-thiadiazol-5-yl)amino)phenyl)butanoic Acid]
IC50 [1]: 3.16 nM | PBMC TOX PXC50 [2]: <5

CC(C)CN(c1ccc(C(C)NC(N)=O)cc1Nc1nc(C(F)(F)F)ns1)C1CCOCC1 (centres unmarked) [example 249, (1-{4-[(2-methylpropyl)(oxan-4-yl)amino]-3-{[3-(trifluoromethyl)-1,2,4-thiadiazol-5-yl]amino}phenyl}ethyl) urea]
IC50 [1]: 20 nM | PBMC TOX PXC50 [2]: <5

CO[C@H](C)CN(C[C@@H](C)OC)c1ccc([C@H](C)CC(=O)O)cc1Nc1nc(C(F)(F)F)ns1 [example 258, (3R)-3-(4-{bis[(2R)-2-methoxypropyl]amino}-3-{[3-(trifluoromethyl)-1,2,4-thiadiazol-5-yl]amino}phenyl)butanoic acid]
IC50 [1]: 79.4 nM | PBMC TOX PXC50 [2]: <5

CC(C)CN(c1ccc([C@H](C)CC(=O)O)cc1Nc1cnc(Cl)cn1)C1CCOCC1 [Example 12, (R)-3-(3-((5-chloropyrazin-2-yl)amino)-4-(isobutyl(tetrahydro-2H-pyran-4-yl)amino)phenyl)butanoic Acid]
IC50 [1]: 1 nM | PBMC TOX PXC50 [2]: <5

COCCC(=O)N1CCC(N(CC(C)C)c2ccc([C@H](C)CC(=O)O)cc2Nc2nc(C(F)(F)F)ns2)CC1 [Example 68, (R)-3-(4-(isobutyl(1-(3-methoxypropanoyl)piperidin-4-yl)amino)-3-((3-(trifluoromethyl)-1,2,4-thiadiazol-5-yl)amino)phenyl)butanoic Acid]
IC50 [1]: 2 nM | PBMC TOX PXC50 [2]: <5

CC(C)CN(c1ccc([C@H](C)CC(=O)O)cc1Nc1ccc(C(F)(F)F)nc1)C1CCOCC1 [Example 7, (R)-3-(4-(isobutyl(tetrahydro-2H-pyran-4-yl)amino)-3-((6-(trifluoromethyl)pyridin-3-yl)amino)phenyl)butanoic Acid]
IC50 [1]: 0.631 nM | PBMC TOX PXC50 [2]: <5

CC(C)CN(c1ccc(C(C)CC(=O)O)cc1Nc1nnc(C(N)=O)s1)C1CCCCC1 (centres unmarked) [Example 80, 3-(3-((5-carbamoyl-1,3,4-thiadiazol-2-yl)amino)-4-(cyclohexyl(isobutyl)amino)phenyl)butanoic]
IC50 [1]: 1.58 nM | PBMC TOX PXC50 [2]: <5

CC(C)CN(c1ccc([C@H](C)CC(=O)O)cc1Nc1n[nH]c(C(N)=O)n1)C1CCOCC1 [example 227, (3R)-3-{3-[(5-carbamoyl-1H-1,2,4-triazol-3-yl)amino]-4-[(2-methylpropyl)(oxan-4-yl)amino]phenyl}butanoic acid]
IC50 [1]: 501 nM | PBMC TOX PXC50 [2]: <5

CC(C)CN(c1ccc([C@H](C)CC(=O)O)cc1Nc1cnc(Cl)nc1)C1CCOCC1 [Example 10, (R)-3-(3-((2-chloropyrimidin-5-yl)amino)-4-(isobutyl(tetrahydro-2H-pyran-4-yl)amino)phenyl)butanoic Acid]
IC50 [1]: 0.794 nM | PBMC TOX PXC50 [2]: <5

CC(C)CN(c1ccc(C(C)CC(=O)O)cc1Nc1nnc(C(=O)NC2CC2)s1)C1CCCCC1 (centres unmarked) [example 238, 3-{4-[cyclohexyl(2-methylpropyl)amino]-3-{[5-(cyclopropylcarbamoyl)-1,3,4-thiadiazol-2-yl]amino}phenyl}butanoic acid]
IC50 [1]: 20 nM | PBMC TOX PXC50 [2]: <5

CC(C)CN(c1ccc([C@H](C)CC(=O)O)cc1Nc1ccc(C(N)=O)nn1)C1CCOCC1 [example 253, (3R)-3-{3-[(6-carbamoylpyridazin-3-yl)amino]-4-[(2-methylpropyl)(oxan-4-yl)amino]phenyl}butanoic acid]
IC50 [1]: 316 nM | PBMC TOX PXC50 [2]: <5

Cc1ccc(CC(=O)Nc2cc(-c3ccccc3C(=O)O)ccc2N(CC(C)C)C23CC(C2)C3)cc1 [example 268, 4′-({bicyclo[1.1.1]pentan-1-yl}(2-methylpropyl)amino)-3′-[2-(4-methylphenyl)acetamido]-[1,1′-biphenyl]-2-carboxylic acid]
IC50 [1]: 2000 nM | PBMC TOX PXC50 [2]: <5

CC(C)CN(c1ccc([C@H](C)CC(=O)O)cc1Nc1n[nH]c(Cl)n1)C1CCOCC1 [Example 34, (R)-3-(3-((5-Chloro-1H-1,2,4-triazol-3-yl)amino)-4-(isobutyl(tetrahydro-2H-pyran-4-yl)amino)phenyl)butanoic Acid]
IC50 [1]: 6.31 nM | PBMC TOX PXC50 [2]: <5

CC(C)CN(c1ccc([C@H](C)Cc2nnn[nH]2)cc1Nc1nc(Cl)ns1)C1CCOCC1 [Example 100, (R)-4-(1-(1H-tetrazol-5-yl)propan-2-yl)-N^2-(3-chloro-1,2,4-thiadiazol-5-yl)-N^1-isobutyl-N^1-(tetrahydro-2H-pyran-4-yl)benzene-1,2-diamine]
IC50 [1]: 2 nM | PBMC TOX PXC50 [2]: <5

CNC(=O)c1nnc(Nc2cc(C(C)CC(=O)O)ccc2N(CC(C)C)C2CCCCC2)s1 (centres unmarked) [Example 79]
IC50 [1]: 5.01 nM | PBMC TOX PXC50 [2]: <5

COC(=O)N1CCC(N(CC(C)C)c2ccc([C@H](C)CC(=O)O)cc2Nc2nc(C(F)(F)F)ns2)CC1 [Example 66]
IC50 [1]: 1.58 nM | PBMC TOX PXC50 [2]: 5.2

CC(C)CN(CC(C)C)c1ccc([C@H](C)CC(=O)O)cc1Nc1nc(C(F)(F)F)c[nH]1 [Example 85, (R)-3-(4-(diisobutylamino)-3-((4-(trifluoromethyI)-1H-imidazol-2-yl)amino)phenyl)butanoic Acid]
IC50 [1]: 2.51 nM | PBMC TOX PXC50 [2]: <5

CO[C@H]1CC[C@H](N(CC(C)C)c2ccc([C@H](C)CC(=O)O)cc2Nc2nc(C(F)(F)F)ns2)CC1 [Example 50, (R)-3-(4-(isobutyl((1r,4R)-4-methoxycyclohexyl)amino)-3-((3-(trifluoromethyl)-1,2,4-thiadiazol-5-yl)amino)phenyl)butanoic Acid]
IC50 [1]: 1.58 nM | PBMC TOX PXC50 [2]: <5

CNC(=O)c1c[nH]c(Nc2cc([C@H](C)CC(=O)O)ccc2N(CC(C)C)C2CCOCC2)n1 [example 232, (3R)-3-(3-{[4-(methylcarbamoyl)-1H-imidazol-2-yl]amino}-4-[(2-methylpropyl)(oxan-4-yl)amino]phenyl)butanoic acid]
IC50 [1]: 3160 nM | PBMC TOX PXC50 [2]: <5

CC(C)CN(CC(C)C)c1ccc([C@H](C)CC(=O)O)cc1Nc1nc(C(F)(F)F)cn1COCC[Si](C)(C)C [example 220, (3R)-3-{4-[bis(2-methylpropyl)amino]-3-{[4-(trifluoromethyl)-1-{[2-(trimethylsilyl)ethoxy]methyl}-1H-imidazol-2-yl]amino}phenyl}butanoic acid]
IC50 [1]: 398 nM | PBMC TOX PXC50 [2]: <5

CC(C)CN(CC(C)C)c1ccc(C(C)CC(=O)O)cc1Nc1nnn(C(C)C)n1 (centres unmarked) [example 250, 3-{4-[bis(2-methylpropyl)amino]-3-{[2-(propan-2-yl)-2H-1,2,3,4-tetrazol-5-yl]amino}phenyl}butanoic acid]
IC50 [1]: 1260 nM | PBMC TOX PXC50 [2]: <5

CO[C@H]1CC[C@H](N(CC(C)C)c2ccc([C@H](C)CC(=O)O)cc2Nc2nc(Cl)ns2)CC1 [Example 54, (R)-3-(3-((3-chloro-1,2,4-thiadiazol-5-yl)amino)-4-(isobutyl((1r,4R)-4-methoxycyclohexyl)amino)phenyl)butanoic Acid]
IC50 [1]: 2 nM | PBMC TOX PXC50 [2]: <5

CC(C)CN(CC(C)C)c1ccc([C@H](C)CC(=O)O)cc1Nc1ccc(=O)[nH]c1 [example 217, (3R)-3-{4-[bis(2-methylpropyl)amino]-3-[(6-oxo-1,6-dihydropyridin-3-yl)amino]phenyl}butanoic acid]
IC50 [1]: 3980 nM | PBMC TOX PXC50 [2]: <5

CC(C)CN(c1ccc([C@H](C)CC(=O)O)cc1Nc1ncn[nH]1)C1CCOCC1 [example 242, (3R)-3-{4-[(2-methylpropyl)(oxan-4-yl)amino]-3-[(1H-1,2,4-triazol-5-yl)amino]phenyl}butanoic acid]
IC50 [1]: 398 nM | PBMC TOX PXC50 [2]: <5

CC(C)CN(c1ccc([C@H](C)CC(=O)O)cc1Nc1cnc(C(N)=O)cn1)C1CCOCC1 [example 264, (3R)-3-{3-[(5-carbamoylpyrazin-2-yl)amino]-4-[(2-methylpropyl)(oxan-4-yl)amino]phenyl}butanoic acid]
IC50 [1]: 79.4 nM | PBMC TOX PXC50 [2]: <5
